The values below come from patent publication US6531119B1, “Compositions with low irritancy” (priority 1998, dated 2003).

SMILES strings stand for the structures.

The test system of the data set is skin. In words: 21-Day Cumulative Irritation Test. The class given is in vivo, human. On the procedure: Each of the formulations of Examples 1-11 was evaluated for its tendency to cause skin erythema using the 21-Day Cumulative Irritation Test. In this test, 0.2 g of undiluted deodorant is applied daily for 21 days (excluding weekends) to the same 2-cm square patch of skin, which is occluded between applications. Each weekday during the test period, trained personnel grade the portion of skin where the test material is applied for signs of irritation and reapply the test material. Subjects fulfill specific inclusion criteria including not pregnant or breast feeding, over 18 years old, and without medical conditions which would interfere with the test. The grading system used is as follows:
0.5 Papular or papulovesicular response and/or dryness without erythema […]
The total score is calculated by summing each individual's score on the 21 days of the test. […] The normalized score is the total score divided by the total number of readings for all subjects and multiplied by 21 (the number of readings) and by 10 (to normalize to 10 subjects). Normalized scores are analyzed using ANOVA (analysis of variance technique described in Duncan, A. J., “Analysis of Variance”, Quality Control and Industrial Statistics (Irwin Publishers, Homewood, Ill. 1986) including the effects of subject and product. Product comparisons are made at the 5% level based on Fisher's least significant differences. […]

With `CCCCCCCCCCCCOS(=O)(=O)[O-].[Na+]` [Sodium Lauryl Sulfate], the “Normalized Score” value (0.2 g undiluted product applied daily for 21 days to same occluded 2-cm square skin patch, total score normalized to 21 readings and 10 subjects) was 431.8. Further, the “Irritation Classification” value (classification of the normalized score, 21-Day Cumulative Irritation Test) was “Moderate”.
